Assays:
[1] = tested on: PSMA-expressing LNCaP cells; experiment: Cell binding and internalization; format: cell-based, human; conditions: for Cell surface binding activity / Internalized activity: 37° C.
Experimental: The cellular uptake and internalization kinetics of the [^68Ga]1a, [^68Ga]5a and [^68Ga]5b were determined using PSMA-expressing LNCaP cells. Furthermore, to be able to discriminate between total cellular activity (sum of membrane-associated and internalized activity) and internalized activity, all incubations were followed by a washing step with mild acid at 4° C. to remove specifically cell-surface bound radioligand by displacement.
LNCaP cells (in 6-well plates in triplicates) were incubated in RPMI-1640 medium with [^68Ga]1a, [^68Ga]5a or [^68Ga]5b for 0-2 h at 37° C. At the indicated time, the medium was removed and the cells were washed twice and then incubated with a mild acid buffer (50 mM glycine, 150 mM NaCl, pH 3.0) at 4° C. for 5 min. The supernatant (containing cell surface-bound radioactivity) was pooled and the cell pellet (containing internalized radioactivity) was collected with filter paper and then radioactivity in supernatant and cell pellet was counted on a gamma counter.
LNCaP cells were incubated with [^68Ga]1a, [^68Ga]5a and [^68Ga]5b for up to 2 h at 37° C. to determine whether the compound is internalized by endocytosis. The cells were then washed with a mild acid buffer to remove extracellularly bound compound.
Non specific binding (NSB) was evaluated by blocking with 20 μM PMPA. Specificity of cell uptake (SB) was calculated by subtracting the respective signals resulting from PMPA blocking. Values are expressed as % of applied radioactivity bound to 10^6 cells.

[2] = tested on: LNCaP tumor bearing nude mice; experiment: Biodistribution of [68Ga]labeled ligand in PSMA positive tumor bearing nude mice; format: in vivo, mouse; conditions: 1 h post-injection, i.v., n = 3
Experimental: In a dish contained 5×10^6 cells of LNCaP in 50% Matrigel (Becton Dickinson, Heidelberg, Germany) were subcutaneously inoculated into the left shoulder of male 5- to 6-week-old CD-1 nu/nu mice (Charles River Laboratories). The tumors were allowed to grow for 8 weeks until approximately 0.5 cm^3 in size.
The ^68Ga-radiolabeled compounds were injected via tail vein (25 μCi per mouse; 0.1-0.2 nmol). At 1 h after injection, the animals were sacrificed. Organs of interest were dissected and weighed. The radioactivity was measured with a gamma counter and calculated as % ID/g.

[3] = Biodistribution of radiotracers in normal mice; format: in vivo, mouse; conditions: for Biodistribution: Blood / Biodistribution: Bone / Biodistribution: Brain / Biodistribution: Heart / Biodistribution: Kidney / Biodistribution: Liver / Biodistribution: Lung / Biodistribution: Muscle / Biodistribution: Pancreas / Biodistribution: Skin / Biodistribution: Spleen: normal male mice
Procedure, shortened: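 Male CD-1 mice received 35 μCi [^68Ga] radiotracer (0.2 nmole ligand) by tail vein. Four mice per time point sacrificed at 2, 30, 60 and 120 min p.i.; organs and blood weighed and gamma counted. %ID/g calculated against a standard dilution of the dose, decay-corrected.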

[4] = tested on: LNCaP PSMA+ and PC-3 PSMA− tumor bearing mice; experiment: Small animal microPET imaging of [68Ga]5b in tumor bearing nude mice; format: in vivo, mouse
Experimental: This study was performed in a small animal imaging facility Male CD-1-nu/nu mice were implanted subcutaneously with 5×10^6 LNCaP cells and PC-3 cells. When the tumors reached approximately 5-10 mm in diameter, the mice were used for microPET imaging. Mice bearing LNCaP tumor and PC-3 tumors were injected via the tail vein with ˜0.5 mCi of [^68Ga]5b. Imaging studies were carried out under general anesthesia of the animals, induced with inhalation of […] and maintained with inhalation of […] isoflurane in 30% oxygen/air. Animals were positioned prone in the scanner. Whole body scan was performed for 15 min from 60 min post-injection of radiotracers. PET images were generated using the AMIDE software. MicroPET images obtained in LNCaP and PC-3 tumor xenografts from 60 min to 75 min after injection of [^68Ga]5b are shown in FIGS. 5A-5C.

[5] = 60 min to 75 min after injection

## O=C(O)CCc1ccc2c(c1)C[N+]13CC[N+]45CC(=O)[O][68Ga-3]14([O]C(=O)C3)([O]2)[O]c1ccc(CCC(=O)NCC(=O)N[C@@H](Cc2ccc(OCC(=O)N[C@@H](Cc3ccccc3)C(=O)NCCCC[C@H](NC(=O)N[C@@H](CCC(=O)O)C(=O)O)C(=O)O)cc2)C(=O)O)cc1C5 (some centres unmarked) [[^68Ga]5b]
[1]; 5 min
  Cell surface binding activity: 2.50 ± 0.79 % ID/10^6 cells
  Internalized activity: 1.58 ± 0.30 % ID/10^6 cells
[1]; 15 min
  Cell surface binding activity: 2.87 ± 0.10 % ID/10^6 cells
  Internalized activity: 4.08 ± 0.01 % ID/10^6 cells
[1]; 30 min
  Cell surface binding activity: 3.54 ± 0.62 % ID/10^6 cells
  Internalized activity: 8.29 ± 0.54 % ID/10^6 cells
[1]; 60 min
  Cell surface binding activity: 3.74 ± 0.33 % ID/10^6 cells
  Internalized activity: 12.5 ± 0.46 % ID/10^6 cells
[1]; 90 min
  Cell surface binding activity: 5.03 ± 0.41 % ID/10^6 cells
  Internalized activity: 20.0 ± 2.54 % ID/10^6 cells
[1]; 120 min
  Cell surface binding activity: 4.69 ± 0.45 % ID/10^6 cells
  Internalized activity: 18.9 ± 1.61 % ID/10^6 cells
[1]; blocking with 20 μM PMPA, FIG. 4
  Non specific binding (NSB) in LNCaP cell uptake, in words: extremely low
[1]; up to 2 h at 37° C.
  Internalized activity, comparison in words: much higher than those of [^68Ga]1a and [^68Ga]5a
[2]
  Organ distribution: Blood: 0.46 ± 0.04 % dose/g
  Organ distribution: Bone: 0.27 ± 0.07 % dose/g
  Organ distribution: Brain: 0.05 ± 0.01 % dose/g
  Organ distribution: Heart: 0.51 ± 0.12 % dose/g
  Organ distribution: Liver: 0.78 ± 0.09 % dose/g
  Organ distribution: Lung: 2.27 ± 0.37 % dose/g
  Organ distribution: Muscle: 0.34 ± 0.07 % dose/g
  Organ distribution: Pancreas: 0.97 ± 0.23 % dose/g
  Organ distribution: Skin: 1.16 ± 0.57 % dose/g
  Organ distribution: Spleen: 11.09 ± 3.35 % dose/g
[3]; normal CD-1 male mice
  Clearance from organs, in words: cleared quickly and well except kidneys and spleen
[3]; normal CD-1 male mice, 2 min
  Biodistribution: Body leftover: 2.30 ± 0.05 % dose/g
  Biodistribution: Fat: 2.08 ± 0.27 % dose/g
  Biodistribution: Large intestine: 1.20 ± 0.20 % dose/g
  Biodistribution: Seminal vesicles: 1.47 ± 0.25 % dose/g
  Biodistribution: Small intestine: 2.46 ± 0.15 % dose/g
  Biodistribution: Stomach: 0.81 ± 0.29 % dose/g
  Biodistribution: Tail: 8.08 ± 0.78 % dose/g
  Biodistribution: Testes: 0.96 ± 0.15 % dose/g
[3]; normal CD-1 male mice, 30 min
  Biodistribution: Body leftover: 0.98 ± 0.05 % dose/g
  Biodistribution: Fat: 1.45 ± 0.13 % dose/g
  Biodistribution: Large intestine: 0.37 ± 0.04 % dose/g
  Biodistribution: Seminal vesicles: 1.13 ± 0.19 % dose/g
  Biodistribution: Small intestine: 1.03 ± 0.07 % dose/g
  Biodistribution: Stomach: 0.31 ± 0.07 % dose/g
  Biodistribution: Tail: 2.92 ± 0.95 % dose/g
  Biodistribution: Testes: 1.14 ± 0.21 % dose/g
[3]; normal CD-1 male mice, 60 min
  Biodistribution: Body leftover: 0.52 ± 0.11 % dose/g
  Biodistribution: Fat: 0.73 ± 0.11 % dose/g
  Biodistribution: Large intestine: 0.31 ± 0.21 % dose/g
  Biodistribution: Seminal vesicles: 0.94 ± 0.22 % dose/g
  Biodistribution: Small intestine: 0.74 ± 0.17 % dose/g
  Biodistribution: Stomach: 0.17 ± 0.06 % dose/g
  Biodistribution: Tail: 1.73 ± 0.55 % dose/g
  Biodistribution: Testes: 0.82 ± 0.06 % dose/g
[3]; normal CD-1 male mice, 120 min
  Biodistribution: Body leftover: 0.27 ± 0.01 % dose/g
  Biodistribution: Fat: 0.35 ± 0.04 % dose/g
  Biodistribution: Large intestine: 0.54 ± 0.16 % dose/g
  Biodistribution: Seminal vesicles: 0.64 ± 0.10 % dose/g
  Biodistribution: Small intestine: 0.45 ± 0.12 % dose/g
  Biodistribution: Stomach: 0.22 ± 0.05 % dose/g
  Biodistribution: Tail: 0.55 ± 0.04 % dose/g
  Biodistribution: Testes: 0.68 ± 0.06 % dose/g
[3]; 2 min
  Biodistribution: Blood: 7.94 ± 0.52 % dose/g
  Biodistribution: Bone: 2.16 ± 0.11 % dose/g
  Biodistribution: Brain: 0.19 ± 0.02 % dose/g
  Biodistribution: Heart: 4.33 ± 0.11 % dose/g
  Biodistribution: Kidney: 50.32 ± 3.31 % dose/g
  Biodistribution: Liver: 2.97 ± 0.24 % dose/g
  Biodistribution: Lung: 5.75 ± 0.26 % dose/g
  Biodistribution: Muscle: 1.97 ± 0.16 % dose/g
  Biodistribution: Pancreas: 2.18 ± 0.04 % dose/g
  Biodistribution: Skin: 2.38 ± 0.10 % dose/g
  Biodistribution: Spleen: 3.86 ± 0.57 % dose/g
[3]; 30 min
  Biodistribution: Blood: 1.13 ± 0.13 % dose/g
  Biodistribution: Bone: 0.60 ± 0.02 % dose/g
  Biodistribution: Brain: 0.05 ± 0.01 % dose/g
  Biodistribution: Heart: 0.98 ± 0.06 % dose/g
  Biodistribution: Kidney: 73.96 ± 5.56 % dose/g
  Biodistribution: Liver: 0.95 ± 0.11 % dose/g
  Biodistribution: Lung: 2.63 ± 0.08 % dose/g
  Biodistribution: Muscle: 0.67 ± 0.05 % dose/g
  Biodistribution: Pancreas: 0.80 ± 0.09 % dose/g
  Biodistribution: Skin: 1.14 ± 0.15 % dose/g
  Biodistribution: Spleen: 1.70 ± 0.44 % dose/g
[3]; 60 min
  Biodistribution: Blood: 0.48 ± 0.11 % dose/g
  Biodistribution: Bone: 0.38 ± 0.04 % dose/g
  Biodistribution: Brain: 0.03 ± 0.00 % dose/g
  Biodistribution: Heart: 0.40 ± 0.09 % dose/g
  Biodistribution: Kidney: 62.77 ± 12.55 % dose/g
  Biodistribution: Liver: 0.54 ± 0.09 % dose/g
  Biodistribution: Lung: 1.28 ± 0.31 % dose/g
  Biodistribution: Muscle: 0.31 ± 0.07 % dose/g
  Biodistribution: Pancreas: 0.52 ± 0.02 % dose/g
  Biodistribution: Skin: 0.58 ± 0.19 % dose/g
  Biodistribution: Spleen: 1.71 ± 0.66 % dose/g
[3]; 120 min
  Biodistribution: Blood: 0.27 ± 0.07 % dose/g
  Biodistribution: Bone: 0.26 ± 0.01 % dose/g
  Biodistribution: Brain: 0.02 ± 0.00 % dose/g
  Biodistribution: Heart: 0.22 ± 0.06 % dose/g
  Biodistribution: Kidney: 49.00 ± 4.76 % dose/g
  Biodistribution: Liver: 0.37 ± 0.06 % dose/g
  Biodistribution: Lung: 0.61 ± 0.07 % dose/g
  Biodistribution: Muscle: 0.16 ± 0.01 % dose/g
  Biodistribution: Pancreas: 0.32 ± 0.02 % dose/g
  Biodistribution: Skin: 0.26 ± 0.02 % dose/g
  Biodistribution: Spleen: 1.39 ± 0.38 % dose/g
[4]; 2-PMPA 2 mg/kg co-injected
  Binding in LNCaP tumor and kidney with 2-PMPA co-injection, in words: binding was abolished in the LNCaP tumor and kidney tissue
[4]; [5]
  PC-3 (PSMA negative) tumor uptake in microPET, in words: did not show any uptakes
  Uptake in microPET images, in words: uptake was seen only in the kidneys, bladder and PSMA positive LNCaP tumor

From patent publication US10688200B2, “Urea-based prostate specific membrane antigen (PSMA) inhibitors for imaging and therapy” (Five Eleven Pharma Inc., priority 2015, dated 2020)
